The record followed here is paper PMC6433232, “Targeting mitochondria in cancer therapy could provide a basis for the selective anti-cancer activity” (PLoS ONE, 2019).

Read-outs that look alike come from different tables or passages of the source.

The subject of data set [1] is primary acute myeloid leukemia (AML) cells obtained from patients. As to the kind of experiment: Kinase inhibitor library screening with and without NSC130362, primary AML cells. The data set is classed as cell-based, Human.
In data set [2] the test system is pancreatic cancer MIA PaCa-2 cells. As to the kind of experiment: cells. Particulars: for EC50: Homo sapiens, MIA PaCa-2, read-out: EC50, μM MIA PaCa-2. How it is done:
Fig 1 A, Structure of NSC130362. B, Dose response curve of NSC130362 in MIA PaCa-2 cells. Cells were pre-incubated with NSC130362 for 2 h followed by addition of ATO (5 μM) and incubation for an additional 24 h. At the end of the treatment, the ratio of dead cells was determined by a CellTiterGlo reagent.

Data set [3] concerns human primary hepatocytes. Put plainly: cells. Particulars: Hepatocyte, read-out: EC50, μM Hepatocytes.
Text: (§1) We selected hepatocytes as normal cells because hepatocytes are mediate toxicity to multiple drugs and are used as a standard to assess toxicity of drugs in vitro [28]. […] For comparison with the standard of care, doxorubicin was also included in this analysis.
For data set [4], the system named is human primary hepatocytes. The conditions noted are these: for times more toxic toward hepatocytes than compound 2: versus compound 2.
Text: as §1
Where [5] appears, read: ratio of EC50 for inhibitor to EC50 for inhibitor/NSC130362 combination, NSC130362 10 μM, Screen N 1.
Where [6] appears, read: ratio of EC50 for inhibitor to EC50 for inhibitor/NSC130362 combination, NSC130362 10 μM, Screen N 2.
Where [7] appears, read: ratio of EC50 for inhibitor to EC50 for inhibitor/NSC130362 combination, NSC130362 10 μM, Screen N 3.

In the case of `Cc1cc(Nc2cc(N3CCN(C)CC3)nc(Sc3ccc(NC(=O)C4CC4)cc3)n2)n[nH]1` [Tozasertib (VX-680)], the “EC50 decrease, fold (Screen N 1)” value in data set [1] (setting [5]) was 7.5 fold. Moreover, the “EC50 decrease, fold (Screen N 2)” value in data set [1] (setting [6]) came to 1.0 fold. Also, the “EC50 decrease, fold (Screen N 3)” value in data set [1] (setting [7]) was 0.9 fold.
The matching figures for `CC(=O)Nc1cccc(-n2c(=O)n(C3CC3)c(=O)c3c(Nc4ccc(I)cc4F)n(C)c(=O)c(C)c32)c1` [Trametinib (GSK1120212)]: 1.4 fold, 398.5 fold and 183.2 fold.
Consider `CCCCNc1ncc2c(-c3ccc(CN4CCN(C)CC4)cc3)cn(C3CCC(O)CC3)c2n1` (stereo not shown) [UNC 2025A], for which, in data set [1] (setting [6]), the “EC50 decrease, fold (Screen N 2)” value worked out at 1.0 fold.
In the case of `O=c1ncn2nc(Sc3ccc(F)cc3F)ccc2c1-c1c(Cl)cccc1Cl` [VX-745], the “EC50 decrease, fold (Screen N 1)” value in data set [1] (setting [5]) was determined as 2.9 fold. Moreover, in data set [1] (setting [6]), the “EC50 decrease, fold (Screen N 2)” value is recorded as 1.0 fold. The “EC50 decrease, fold (Screen N 3)” value in data set [1] (setting [7]) is 0.0543 fold.
Consider `COc1cc2/c(=N/c3ccc(Br)cc3F)nc[nH]c2cc1OCC1CCN(C)CC1` [Vandetanib (ZD6474)], for which, in data set [1] (setting [5]), the “EC50 decrease, fold (Screen N 1)” value is reported as 0.5 fold. For the same compound, in data set [1] (setting [6]), the “EC50 decrease, fold (Screen N 2)” value was determined as 1.0 fold.
In the case of `CCS(=O)(=O)O.COC(=O)c1ccc2c(c1)NC(=O)/C2=C(\Nc1ccc(N(C)C(=O)CN2CCN(C)CC2)cc1)c1ccccc1` [Vargetef], in data set [1] (setting [5]), the “EC50 decrease, fold (Screen N 1)” value stood at 0.229 fold. Besides, in data set [1] (setting [6]), the “EC50 decrease, fold (Screen N 2)” value amounted to 1.0 fold. Moreover, the “EC50 decrease, fold (Screen N 3)” value in data set [1] (setting [7]) is 0.14 fold.
For the compound `Clc1ccc(Nc2nnc(Cc3ccncc3)c3ccccc23)cc1` [Vatalanib (PTK787)], in data set [1] (setting [5]), the “EC50 decrease, fold (Screen N 1)” value was found to be 0.245 fold. In addition, the “EC50 decrease, fold (Screen N 2)” value in data set [1] (setting [6]) came out at 1.0 fold. Moreover, the “EC50 decrease, fold (Screen N 3)” value in data set [1] (setting [7]) is on record as 0.7 fold.
`CC(C)C[C@H](NC(=O)[C@H](Cc1ccccc1)NC(=O)c1cnccn1)B(O)O` [Velcade]: in data set [1], the “EC50 decrease, fold (Screen N 1)” value is reported as 0.457 fold; the “EC50 decrease, fold (Screen N 2)” value was determined as 0.468 fold; the “EC50 decrease, fold (Screen N 3)” value came out at 0.0645 fold.
Turning to `CCCS(=O)(=O)Nc1ccc(F)c(C(=O)c2c[nH]c3ncc(-c4ccc(Cl)cc4)cc23)c1F` [Vemurafenib (PLX-4032)], the “EC50 decrease, fold (Screen N 1)” value in data set [1] (setting [5]) was determined as 1.0 fold. Also, the “EC50 decrease, fold (Screen N 2)” value in data set [1] (setting [6]) is reported as 1.0 fold.
On to `CS(=O)(=O)c1ccc(C(=O)Nc2ccc(Cl)c(-c3ccccn3)c2)c(Cl)c1` [Vismodegib (GDC-0449)], for which the “EC50 decrease, fold (Screen N 1)” value in data set [1] (setting [5]) stood at 1.0 fold. Also, in data set [1] (setting [6]), the “EC50 decrease, fold (Screen N 2)” value worked out at 1.0 fold. The “EC50 decrease, fold (Screen N 3)” value in data set [1] (setting [7]) was found to be 1.0 fold.
For the compound `CC[C@@H]1C(=O)N(C)c2cnc(Nc3ccc(C(=O)N[C@H]4CC[C@H](N5CCN(CC6CC6)CC5)CC4)cc3OC)nc2N1C(C)C` [Volasertib (BI-6727)], the “EC50 decrease, fold (Screen N 1)” value in data set [1] (setting [5]) is recorded as 0.2 fold. The “EC50 decrease, fold (Screen N 2)” value in data set [1] (setting [6]) was 0.4 fold. Also, the “EC50 decrease, fold (Screen N 3)” value in data set [1] (setting [7]) was 68.5 fold.
Regarding `Oc1nc(-c2ccc(C(F)(F)F)cc2)nc2c1CSCC2` [XAV-939], the “EC50 decrease, fold (Screen N 1)” value in data set [1] (setting [5]) was found to be 6.5 fold. Also, in data set [1] (setting [6]), the “EC50 decrease, fold (Screen N 2)” value is reported as 1.0 fold. In addition, the “EC50 decrease, fold (Screen N 3)” value in data set [1] (setting [7]) was 1.0 fold.
`COCCn1c2c([n+](Cc3cnccn3)c1C)C(=O)c1ccccc1C2=O` [YM-155]: the “EC50 decrease, fold (Screen N 1)” value in data set [1] (setting [5]) was found to be 10.9 fold. For the same compound, in data set [1] (setting [6]), the “EC50 decrease, fold (Screen N 2)” value turned out to be 4.4 fold. Also, the “EC50 decrease, fold (Screen N 3)” value in data set [1] (setting [7]) came to 1.0 fold.
Usually EC50 stands for the concentration giving half of the maximal effect. Consider `CNC1=C(Cl)C(=O)c2ccccc2C1=O` [compound 2], for which the EC50 in data set [2] amounted to 38.6 µM; in data set [3] it was 41.1 µM.
Consider `CCCNC1=C(Cl)C(=O)c2ccccc2C1=O` [compound 4], for which the EC50 in data set [2] and in data set [3] was 90 µM throughout. In addition, the “reduction of anti-cancer activity” value in data set [2] (versus compound 3) is “more than 3 fold”.
For the compound `CCCCNC1=C(Cl)C(=O)c2ccccc2C1=O` [compound 5], the EC50 in data set [2] and in data set [3] was more than 90 µM each time.
`CCCCCNC1=C(Cl)C(=O)c2ccccc2C1=O` [compound 6]: the EC50 in data set [2] and in data set [3] was more than 90 µM each time.
For the compound `CCCCCCNC1=C(Cl)C(=O)c2ccccc2C1=O` [compound 7], the EC50 is 26.1 µM in data set [2] and more than 90 µM in data set [3].
As for `CCCCCCCCNC1=C(Cl)C(=O)c2ccccc2C1=O` [compound 9], the EC50 in data set [2] and in data set [3] was more than 90 µM each time.
On to `CC(C)NC1=C(Cl)C(=O)c2ccccc2C1=O` [compound 10], for which the figures for the EC50 in data set [2] and in data set [3] were 69 µM and more than 90 µM, respectively.
For `CCC(C)NC1=C(Cl)C(=O)c2ccccc2C1=O` (stereo not shown) [compound 11], in that order: more than 90 µM and more than 90 µM.
`CC(C)CNC1=C(Cl)C(=O)c2ccccc2C1=O` [compound 12]: the EC50 in data set [2] and in data set [3] was more than 90 µM throughout.
Take `CN(C)C1=C(Cl)C(=O)c2ccccc2C1=O` [compound 14, 2-chloro-3-(dimethylamino)-1,4-NQ]: the “times more toxic toward hepatocytes than compound 2” value in data set [4] is given as “approximately 2 times”. The results for the EC50 in data set [2] and in data set [3] were 7.2 µM and 10 µM, respectively.
As for `O=C1C(Cl)=C(N2CC2)C(=O)c2ccccc21` [compound 15, 2-chloro-3-(aziridin-1-yl)-1,4-NQ], the “times more toxic toward hepatocytes than compound 2” value in data set [4] is recorded as approximately 6.5 times. Further, the EC50 in data set [2] stood at 2.3 µM; in data set [3], 2.6 µM.
Take `CC(O)CNC1=C(Cl)C(=O)c2ccccc2C1=O` (stereo not shown) [compound 19]: the “increase in toxicity to hepatocytes” value in data set [4] (versus compound 17) is recorded as “approximately 3 fold”. Also, in data set [2], the EC50 was found to be 24.9 µM.
On to `CCOCCNC1=C(Cl)C(=O)c2ccccc2C1=O` [compound 24], for which the EC50 turned out to be 55.4 µM in data set [2] and 67.8 µM in data set [3].
For `CC(C)OCCCNC1=C(Cl)C(=O)c2ccccc2C1=O` [compound 25], in that order: 82.1 µM and 60.8 µM.
Regarding `CC(=O)NC1=C(Cl)C(=O)c2ccccc2C1=O` [compound 29], the EC50 worked out at 5.4 µM in data set [2] and 9.7 µM in data set [3].
For `CCC(=O)NC1=C(Cl)C(=O)c2ccccc2C1=O` [compound 30], in that order: 5.7 µM and 3.6 µM.
With `O=C(CCl)NC1=C(Cl)C(=O)c2ccccc2C1=O` [compound 33], the EC50 in data set [2] stood at 7.9 µM; in data set [3], 25.4 µM. In addition, the “decrease in anti-cancer activity” value in data set [2] (versus compound 29) worked out at 2 fold.
For `O=C(O)CNC1=C(Cl)C(=O)c2ccccc2C1=O` [compound 34], the EC50 is 18.1 µM in data set [2] and 11.8 µM in data set [3].
Regarding `O=C1C(Cl)=C(NNC(=O)C(F)(F)F)C(=O)c2ccccc21` [compound 35], the concentration giving a half-maximal response (EC50) in data set [2] was determined as 8 µM; in data set [3], 11.5 µM.
The matching figures for `O=C1C(Cl)=C(Nc2ccccn2)C(=O)c2ccccc21` [compound 37]: 5.2 µM and 6 µM.
Turning to `Cc1ccc(NC2=C(Cl)C(=O)c3ccccc3C2=O)cc1` [compound 41], the results for the EC50 in data set [2] and in data set [3] were 2.5 µM and 8.4 µM, respectively.
For `O=C1C(Cl)=C(Nc2ccc(F)cc2)C(=O)c2ccccc21` [compound 42], in that order: 3.2 µM and 10 µM.
For the compound `O=C1C(Cl)=C(Nc2ccc(Cl)cc2)C(=O)c2ccccc21` [compound 43], the EC50 in data set [2] and in data set [3] was more than 90 µM in each case.
For the compound `O=C1C(Cl)=C(Nc2cccc(Cl)c2)C(=O)c2ccccc21` [compound 44], the EC50 in data set [2] stood at 7 µM; in data set [3], 5.3 µM.
For `O=C1C(Cl)=C(Nc2ccc(O)cc2)C(=O)c2ccccc21` [compound 45], in that order: 2.5 µM and 2.6 µM.
For `[N-]=[N+]=NC1=C(Cl)C(=O)c2ccccc2C1=O` [compound 46], in that order: 5.2 µM and 2.9 µM.
With `CC1CCCC(C)N1C1=C(Cl)C(=O)c2ccccc2C1=O` (stereo not shown) [compound 47], the concentration giving a half-maximal response (EC50) in data set [2] turned out to be 7 µM; in data set [3], 9 µM.
Turning to `CCNC1=CC(=O)c2ccccc2C1=O` [compound 49], the EC50 in data set [2] and in data set [3] was more than 90 µM in each case.
Regarding `CCCNC1=CC(=O)c2ccccc2C1=O` [compound 50], the EC50 in data set [2] and in data set [3] was more than 90 µM each time.
Consider `CCCCNC1=CC(=O)c2ccccc2C1=O` [compound 51], for which the EC50 in data set [2] and in data set [3] was more than 90 µM each time.
For `CC(C)CNC1=CC(=O)c2ccccc2C1=O` [compound 52], the concentration for a half-maximal effect (EC50) in data set [2] and in data set [3] was more than 90 µM each time.
Turning to `O=C1C=CC(=O)c2ccccc21` [compound 56, 1,4-NQ, reference compound], the values for the half-maximal effective concentration (EC50) in data set [2] and in data set [3] were 9.2 µM and 1.8 µM, respectively.
The matching figures for `O=C1C=C(NCCNCCO)C(=O)c2ccccc21` [compound 57]: more than 90 µM and 83.2 µM.
Consider `O=C1C=C(N2CCCCC2)C(=O)c2ccccc21` [compound 58], for which the results for the EC50 in data set [2] and in data set [3] were 52 µM and 90 µM, respectively.
For `CCN(CC)C1=CC(=O)c2ccccc2C1=O` [compound 59], the EC50 in data set [2] and in data set [3] was 90 µM each time.
For the compound JAK Inhibitor I, the “EC50 decrease, fold (Screen N 1)” value in data set [1] (setting [5]) stood at 0.847 fold. Besides, the “EC50 decrease, fold (Screen N 2)” value in data set [1] (setting [6]) was found to be 1.0 fold. The “EC50 decrease, fold (Screen N 3)” value in data set [1] (setting [7]) stood at 46.2 fold.
For NF-kB Activation Inhibitor, in that order: 11.2 fold, 1.0 fold and 0.0602 fold.
